Experimental findings from patent publication US20190125888A1, “TARGETED CONJUGATES AND PARTICLES AND FORMULATIONS THEREOF” (priority 2015, published 2019) are described below.

Like-named read-outs stand apart in the source and are kept apart here. Where a SMILES comes first, the peptide text is derived from it. Bridges are numbered along the chain shown (N, C = ends). [ ]: non-standard residue; d: D form. The star is where a group is joined. X1 = COc1cc2cc(c1Cl)N(C)C(=O)C[C@H](OC(=O)[C@H](C)N(C)C(=O)CCS*)[C@]1(C)O[C@H]1[C@H](C)[C@@H]1C[C@@](O)(NC(=O)O1)[C@H](OC)/C=C/C=C(\C)C2

Data set [1] can be described thus: Chrom LogP of maytansinoid conjugates. The class given is physicochemical.
The nature of data set [2]: Ligand charge of maytansinoid conjugates. The class given is physicochemical.
The subject of data set [3] is NCI-H524 (ATCC) human lung cancer cells. The class given is cell-based. As to the method: FIG. 1 is a graph of various conjugates represented as bars and showing on the Y-axis their activity in an H524 proliferation assay with and without competition by octreotide. […] This illustrates the suprprising finding that only maytansinoid conjugates show activity that is dependent on the receptor.
Conjugates were assessed in an in vitro assay evaluating inhibition of cell proliferation. NCI-H524 (ATCC) human lung cancer cells were plated in 96 well, V-bottomed plates (Costar) at a concentration of 5,000 cells/well and 24 hours later were treated with compound for 6 hours and further incubated 66 hours. Compound starting dose was 20 μM and three fold serial dilutions were done for a total of ten points. After 6 hours of treatment, cells were spun down, the drug containing media was removed, and fresh complete medium was added and used to resuspend the cells, which were spun again. After removal of the wash media, the cells were resuspended in complete medium, then transferred into white walled, flat bottomed 96 well plates. […] Proliferation was measured using CellTiter Glo reagent using the standard protocol (Promega) and a Glomax multi+detection system (Promega). Percent proliferation inhibition was calculated using the following formula: % inhibition=(control-treatment)/control*100. Control is defined as vehicle alone. IC50 curves were generated using the nonlinear regression analysis (four parameter) with GraphPad Prism 6.
Conjugates were tested for their activity dependence on the somatostatin receptor. Active agent Z in the conjugate was selected from auristatin, carbazitaxel, DM1, doxorubicin, platinum, SN-38 and vinblastine. Active agent Z is connected to octreotide with various linkers. Proliferation IC50 values of the conjugates were measured. Proliferation IC50 values of the conjugates without octreotide competition were also measured. The ratio of IC50 with octreotide competition and IC50 without octreotide competition is an indicator of whether activity is at least particially dependent on bind to the somatostatin receptor. […] Therefore, the activity of conjugates comprising DM1 is dependent on the binding to the somatostatin receptor.

The test system of data set [4] is human NCI-H69 SCLC. Nature of the data set: H69 xenograft efficacy study, tumor growth inhibition. The class given is in vivo, mice. How it is done:
Applicants assessed the activity of maytansinoid conjugates in vivo. In these experiments, the ability of conjugates to affect the growth of human NCI-H69 SCLC was tested. For the in vivo study, 8 week old female NCR nude mice were inoculated subcutaneously into the right flank with 2 million cells in 1:1 RPMI 1640 (Invitrogen, Carlsbad, Calif.)/Matrigel® (BD Biosciences, San Jose, Calif.). Tumor measurements were taken twice weekly, using vernier calipers. Tumor volume was calculated using the formula: V=0.5×width×width×length.
When tumors approached a volume of 200 mm^3, mice were randomized into four groups of ten animals. Mice were treated with vehicle control (10% propylene glycol in water for injection) and maytansinoid conjugates (10% propylene glycol in water for injection). Final tumor volumes were analyzed using with a one-way analysis of variance and Tukey multiple comparison test.

Data set [5] addresses human SSTR2 (Homo sapiens, UniProt P30874). Briefly: Radioligand-receptor binding assay, [125I] somatostatin, membranes from SSTR2 expressing CHO-K1 cells. How it is done:
These conjugates were also assessed in an in vitro assay evaluating binding to the somatostatin receptor 2 (SSTR2). A radioligand-receptor binding assay was conducted at Eurofins Panlabs (Taiwan) to determine the affinity of conjugates described herein to the SSTR2. The assay measures binding of radiolabeled ligand, [^125I] labeled somatostatin, to human SSTR2 using membrane preparations from SSTR2 expressing CHO-K1 cells. Membranes were incubated with radiolabeled somatostatin (0.03 nM) in the presence of conjugate/compound starting at a dose of 10 uM using 6× serial dilutions to obtain a 10-pt curve. After a four hour incubation, membranes were filtered and washed 3× and counted to determine the remaining [^125I] somatostatin bound to the receptor. IC50 values were determined by a non-linear, least squares regression analysis using MathIQ™ (ID Business Solutions Ltd., UK).

Where [6] appears, read: read-out: H524 IC50 6 h, 6 hours treatment, further 66 hours incubation.
Where [7] appears, read: read-out: H524 IC50 with 100 μM octreotide 6 h, with 100 μM octreotide competition, 6 h treatment.

Sequence of human SSTR2 (P30874 whole entry): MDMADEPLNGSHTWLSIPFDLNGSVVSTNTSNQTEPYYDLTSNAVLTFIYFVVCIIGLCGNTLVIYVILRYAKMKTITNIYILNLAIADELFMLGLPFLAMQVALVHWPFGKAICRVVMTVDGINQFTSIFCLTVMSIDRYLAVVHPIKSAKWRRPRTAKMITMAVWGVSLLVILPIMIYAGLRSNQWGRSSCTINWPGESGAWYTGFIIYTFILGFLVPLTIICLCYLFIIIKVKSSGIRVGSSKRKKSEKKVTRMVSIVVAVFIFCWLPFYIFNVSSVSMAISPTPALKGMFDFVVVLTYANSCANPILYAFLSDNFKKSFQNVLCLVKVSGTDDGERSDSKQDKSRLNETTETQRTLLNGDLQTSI

With `CCCC(=O)N[C@H](Cc1ccccc1)C(=O)N[C@H]1CSSC[C@@H](C(=O)N[C@H](C(=O)NCCSSCCC(=O)N(C)[C@@H](C)C(=O)O[C@H]2CC(=O)N(C)c3cc(cc(OC)c3Cl)C/C(C)=C/C=C/[C@@H](OC)[C@@]3(O)C[C@H](OC(=O)N3)[C@@H](C)[C@@H]3O[C@@]23C)[C@@H](C)O)NC(=O)[C@H]([C@@H](C)O)NC(=O)[C@H](CCCCN)NC(=O)[C@@H](Cc2c[nH]c3ccccc23)NC(=O)[C@H](Cc2ccc(O)cc2)NC1=O` [Conjugate 19], in data set [1], the chromatographic logP (as a rule, a lipophilicity value derived from retention on a column) came to 2.88. Besides, the Ligand charge entry in data set [2] was “+1”. Besides, the values for the IC50 in data set [3] (setting [6]) and in data set [3] (setting [7]) were 6.9 nM and 111 nM, respectively.
For `COc1cc2cc(c1Cl)N(C)C(=O)C[C@H](OC(=O)[C@H](C)N(C)C(=O)CCSSCCNC(=O)[C@@H](NC(=O)[C@@H]1CSSC[C@H](NC(=O)[C@@H](Cc3ccccc3)NC(=O)NC3CCCCC3)C(=O)N[C@@H](Cc3ccc(O)cc3)C(=O)N[C@H](Cc3c[nH]c4ccccc34)C(=O)N[C@@H](CCCCN)C(=O)N[C@@H]([C@@H](C)O)C(=O)N1)[C@@H](C)O)[C@]1(C)O[C@H]1[C@H](C)[C@@H]1C[C@@](O)(NC(=O)O1)[C@H](OC)/C=C/C=C(\C)C2` [Conjugate 20], the chromatographic logP in data set [1] is 3.1. Besides, the Ligand charge result in data set [2] is given as “+1”. The IC50 (in general, the concentration that gives 50% inhibition) in data set [3] (setting [6]) came to 11 nM; in data set [3] (setting [7]), 52 nM.
On the same counts, the results for `COc1cc2cc(c1Cl)N(C)C(=O)C[C@H](OC(=O)[C@H](C)N(C)C(=O)CCSSC[C@H](NC(=O)[C@@H]1CSSC[C@H](NC(=O)[C@H](N)Cc3c[nH]c4ccccc34)C(=O)N[C@@H](Cc3ccc(O)cc3)C(=O)N[C@H](Cc3c[nH]c4ccccc34)C(=O)N[C@@H](CCCCN)C(=O)N[C@@H]([C@@H](C)O)C(=O)N1)C(N)=O)[C@]1(C)O[C@H]1[C@H](C)[C@@H]1C[C@@](O)(NC(=O)O1)[C@H](OC)/C=C/C=C(\C)C2` [Conjugate 24] (H-[dW]CY[dW]KTCC(X1)-NH2; disulfide 2-7) are 2.03, “+2”, 140 nM and 214 nM.
With `COc1cc2cc(c1Cl)N(C)C(=O)C[C@H](OC(=O)[C@H](C)N(C)C(=O)CCSSCCC(=O)NC[C@H](NC(=O)[C@@H]1CSSC[C@H](NC(=O)[C@H](N)Cc3ccccc3)C(=O)N[C@@H](Cc3ccc(O)cc3)C(=O)N[C@H](Cc3c[nH]c4ccccc34)C(=O)N[C@@H](CCCCN)C(=O)N[C@@H]([C@@H](C)O)C(=O)N1)C(N)=O)[C@]1(C)O[C@H]1[C@H](C)[C@@H]1C[C@@](O)(NC(=O)O1)[C@H](OC)/C=C/C=C(\C)C2` [Conjugate 44], the “TGI % Day 13” value in data set [4] (0.7 mg/kg once weekly for two doses, Day 13) is 58.9%. For the same compound, the “TGI % Day 17” value in data set [4] (0.7 mg/kg once weekly for two doses, Day 17) is 56.7%. In addition, in data set [4] (0.7 mg/kg once weekly for two doses, Day 20), the “TGI % Day 20” value is on record as 59.6%. Besides, in data set [4] (0.7 mg/kg once weekly for two doses, Day 24), the “TGI % Day 24” value was 53.1%. The “TGI % Day 30” value in data set [4] (0.7 mg/kg once weekly for two doses, Day 30) is 56.1%. Besides, the “TGI % at day 22” value in data set [4] (Dose 0.67 × 2 mg/kg, total dose 1.34 mg/kg) is recorded as 60%. For the same compound, the affinity in data set [5], expressed as Ki, was 0.022 nM. The Ligand charge entry in data set [2] was “+2”. For the same compound, the concentration for half-maximal inhibition (IC50) in data set [3] (setting [6]) turned out to be 3.6 nM; in data set [3] (setting [7]), 218 nM.
As to `COc1cc2cc(c1Cl)N(C)C(=O)C[C@H](OC(=O)[C@H](C)N(C)C(=O)CCSSCCNC(=O)CC[C@H](NC(=O)[C@@H]1CSSC[C@H](NC(=O)[C@H](N)Cc3ccccc3)C(=O)N[C@@H](Cc3ccc(O)cc3)C(=O)N[C@H](Cc3c[nH]c4ccccc34)C(=O)N[C@@H](CCCCN)C(=O)N[C@@H]([C@@H](C)O)C(=O)N1)C(N)=O)[C@]1(C)O[C@H]1[C@H](C)[C@@H]1C[C@@](O)(NC(=O)O1)[C@H](OC)/C=C/C=C(\C)C2` [Conjugate 47], the affinity in data set [5] corresponds to a Ki of 0.072 nM. In data set [2], the Ligand charge entry is listed as “+2”. Moreover, the half-inhibitory concentration (IC50) in data set [3] (setting [6]) stood at 0.7 nM; in data set [3] (setting [7]), 210 nM.
Turning to `COc1cc2cc(c1Cl)N(C)C(=O)C[C@H](OC(=O)[C@H](C)N(C)C(=O)CCSC1CC(=O)N(CCCNC(=O)CC[C@H](NC(=O)[C@@H]3CSSC[C@H](NC(=O)[C@H](N)Cc4ccccc4)C(=O)N[C@@H](Cc4ccc(O)cc4)C(=O)N[C@H](Cc4c[nH]c5ccccc45)C(=O)N[C@@H](CCCCN)C(=O)N[C@@H]([C@@H](C)O)C(=O)N3)C(N)=O)C1=O)[C@]1(C)O[C@H]1[C@H](C)[C@@H]1C[C@@](O)(NC(=O)O1)[C@H](OC)/C=C/C=C(\C)C2` (stereo partly shown) [Conjugate 48], in data set [5], the Ki – broadly, a dissociation constant, usually derived from enzyme kinetics or from competition with a known ligand – is 0.21 nM. Besides, the Ligand charge entry in data set [2] was “+2”. Besides, the IC50 came out at 9 nM in data set [3] (setting [6]) and 157 nM in data set [3] (setting [7]).
`CCNC(=O)[C@@H](NC(=O)[C@@H]1CSSC[C@H](NC(=O)[C@@H](Cc2ccccc2)NCCCSSCCC(=O)N(C)[C@@H](C)C(=O)O[C@@H]2CC(=O)N(C)c3cc(cc(OC)c3Cl)C/C(C)=C/C=C/[C@@H](OC)[C@@]3(O)C[C@H](OC(=O)N3)[C@@H](C)[C@@H]3O[C@@]23C)C(=O)N[C@@H](Cc2ccc(O)cc2)C(=O)N[C@H](Cc2c[nH]c3ccccc23)C(=O)N[C@@H](CCCCN)C(=O)N[C@@H]([C@@H](C)O)C(=O)N1)[C@@H](C)O` [Conjugate 50] came in with a chromatographic logP in data set [1] of 2.32. For the same compound, in data set [2], the Ligand charge result is given as “+2”. In addition, the IC50 in data set [3] (setting [6]) is 43 nM; in data set [3] (setting [7]), 149 nM.
On the same counts, the results for `CCCCCCNC(=O)[C@@H](NC(=O)[C@@H]1CSSC[C@H](NC(=O)[C@@H](Cc2ccccc2)NC(=O)NCCSSCCC(=O)N(C)[C@@H](C)C(=O)O[C@H]2CC(=O)N(C)c3cc(cc(OC)c3Cl)C/C(C)=C/C=C/[C@@H](OC)[C@@]3(O)C[C@H](OC(=O)N3)[C@@H](C)[C@@H]3O[C@@]23C)C(=O)N[C@@H](Cc2ccc(O)cc2)C(=O)N[C@H](Cc2c[nH]c3ccccc23)C(=O)N[C@@H](CCCCN)C(=O)N[C@@H]([C@@H](C)O)C(=O)N1)[C@@H](C)O` [Conjugate 52] are 3.24, “+1”, 23 nM and 167 nM.
The corresponding values for `CCNC(=O)[C@@H](NC(=O)[C@@H]1CSSC[C@H](NC(=O)[C@@H](Cc2ccccc2)NC(=O)NCCSSCCC(=O)N(C)[C@@H](C)C(=O)O[C@H]2CC(=O)N(C)c3cc(cc(OC)c3Cl)C/C(C)=C/C=C/[C@@H](OC)[C@@]3(O)C[C@H](OC(=O)N3)[C@@H](C)[C@@H]3O[C@@]23C)C(=O)N[C@@H](Cc2ccc(O)cc2)C(=O)N[C@H](Cc2c[nH]c3ccccc23)C(=O)N[C@@H](CCCCN)C(=O)N[C@@H]([C@@H](C)O)C(=O)N1)[C@@H](C)O` [Conjugate 53] are 2.45, “+1”, 42 nM and 86 nM.
Compound `COc1cc2cc(c1Cl)N(C)C(=O)C[C@H](OC(=O)[C@H](C)N(C)C(=O)CCSSC(C)(C)[C@H](NC(=O)[C@@H]1CSSC[C@H](NC(=O)[C@H](N)Cc3ccccc3)C(=O)N[C@@H](Cc3ccc(O)cc3)C(=O)N[C@H](Cc3c[nH]c4ccccc34)C(=O)N[C@@H](CCCCNC(=O)[C@@H](NC(=O)[C@@H](N)C(C)C)C(C)C)C(=O)N[C@@H]([C@@H](C)O)C(=O)N1)C(N)=O)[C@]1(C)O[C@H]1[C@H](C)[C@@H]1C[C@@](O)(NC(=O)O1)[C@H](OC)/C=C/C=C(\C)C2` [Conjugate 58] yielded an inhibition constant Ki in data set [5] of 3980 nM. In addition, the Ligand charge entry in data set [2] was “+2”. Further, the IC50 came to 90 nM in data set [3] (setting [6]) and 250 nM in data set [3] (setting [7]).
